# Source: ChEMBL document CHEMBL3507680, “University of Dundee, Gates Library screen for HepG2 cell viability”
# Test: Human HepG2 cell viability assay in 384 well format
# Assay type: toxicity, cell-based
# Set-up: dose 125 nL, time 70.5 hour; cytotoxicity at 70.5 h: concentration not given beside the values
# Conditions: HepG2 cells, read-out: Inhibition
row,Structure (SMILES),cytotoxicity at 70.5 h [%]
1,Cc1ccc(C)c(S(=O)(=O)CCNC2CCc3ncnn3C2)c1 (stereo not given),-0.666
2,COc1ccc(-c2nnsc2C(=O)N2CCC(C(N)=O)CC2)cc1,-13.8
3,COCCn1ccc(=O)c(OCC(=O)Nc2cccc(Cl)c2)c1C,-8.65
4,COc1cccn(CC(=O)N(C)CCSC)c1=O,-12.7
5,CCc1nc2n(n1)CC(NCc1cn(C)nc1-c1cccnc1)CC2 (stereo not given),-4.07
6,O=C(NCCNc1ncccn1)C1CC(=O)N(CC2CC2)C1 (stereo not given),16.4
7,CCOc1nnc(CN2CCC(c3nc4ccccc4[nH]3)CC2)s1,1.06
8,O=C1CCC(=O)N1c1nn(Cc2cccc(F)c2)cc1Cl,-0.348
9,CSc1nsc(NC(=O)N2CCc3ccccc3C2)n1,-4.59
10,Cc1noc(C)c1CN1CCN(C(C)c2nc(C3CC3)no2)CC1 (stereo not given),-3.54
11,Cc1cc2n(n1)CC(CNC1CCN(C3CC3)CC1)CN2 (stereo not given),-4.14
12,Cc1n[nH]c(C)c1NC(=O)CN1CCCC(CNC(=O)C(C)(C)C)C1 (stereo not given),2.09
13,COCCOc1ccc(NC(=O)N(C)Cc2ccsc2)cn1,3.32
14,O=S(=O)(Cc1ccccc1)NCCc1nnc2n1CCC2,-7.99
15,CC(NC(=O)NCCCN(C)S(C)(=O)=O)c1cccnc1 (stereo not given),-7.17
16,O=C(NCCNC(=O)c1scnc1Cl)c1ccccc1,-6.16
17,Cc1nc(N(C)C)nc(-c2cccc(-c3ccn(CCCO)n3)c2)c1C,-7.13
18,CCOCCOC(C)C(=O)Nc1ccnn1-c1ccccc1C (stereo not given),-4.2
19,c1ccc(CN2CCC3(CC2)CC(Oc2cccnc2)C3)nc1,-12.3
20,Cc1noc(CCNS(=O)(=O)N2CCCC2c2ccco2)n1 (stereo not given),-8.16
21,Cc1ccc(S(=O)(=O)NC[C@H]2OC[C@@H](NCc3cccs3)[C@@H]2O)cc1,7.42
22,Cc1cc(C(=O)N2CCn3c(COCC4CCCC4)cnc3C2C)on1 (stereo not given),-15.4
23,Cc1cccc(-n2ncc(C(=O)NCC3CCS(=O)(=O)C3)c2C)c1 (stereo not given),0.102

row,Structure (SMILES),cytotoxicity at 70.5 h [%]
1,CCCN1CCC(Cc2noc(-c3[nH]cnc3C)n2)CC1,6.08
2,Cc1cccnc1CN1CCN(C(=O)CCn2ccc(=O)[nH]c2=O)CC1,-9.8
3,COCCC1COC2(CCN(C(=O)c3cccn3C)CC2)C1 (stereo not given),-14.7
4,CC(=O)N1CCc2[nH]cnc2C12CCN(C(=O)Cc1cccs1)CC2,-9.66
5,NC(=O)N1CC[C@@H]2O[C@@H](COCC(=O)N3CCCC3)CC[C@@H]21,24
6,CCc1nc(C2CCCN2C(=O)c2ccoc2C)no1 (stereo not given),-9.91
7,CC(C)c1ncc(C(=O)N2CCOCC2CC(=O)c2ccco2)s1 (stereo not given),-2.34
8,O=C(Cc1ccccc1C(F)(F)F)N1CCC2(CC1)OCCCC2O (stereo not given),-16.7
9,c1ccc(CN2CC[C@@H]3O[C@@H](COCC4CCOCC4)CC[C@@H]32)nc1,-14.4
10,CC(C)Cc1cc(C(=O)N2CCC(C(=O)N3CCOCC3)CC2)on1,-7.8
11,CCn1cc(NC(=O)NCCc2ccc3c(c2)OCO3)cn1,-10.2
12,Cn1cc(CN2CC[C@@H]3[C@H]2CCC(=O)N3c2ccccc2)cn1,-8.65
13,O=C(Nc1cccnn1)NC(CCCO)c1ccccc1 (stereo not given),-14.5
14,CC(C)c1nc(C2CCCN2CC(=O)Nc2nncs2)no1 (stereo not given),-1.18
15,N#Cc1ccc(OC[C@]23COC[C@H]2CN(Cc2nccs2)C3)nc1,-4.7
16,COc1ncc(CN(CCN(C)C)Cc2ccc(C)s2)cn1,12.8
17,Cc1noc(CCCC(=O)NCC2CCS(=O)(=O)C2)n1 (stereo not given),1.41
18,CCC(=O)N1CCCC(c2ncc3c(n2)CCN(C)C3)C1 (stereo not given),-8.89
19,Cc1noc2nc(C3CCCN(Cc4ccncc4)C3)cc(C(F)F)c12 (stereo not given),-3.5
20,CNC(=O)[C@H]1C[C@@H]2CN(S(=O)(=O)c3ccc(OC)cc3)C[C@@H]2N1C,-1.32
21,Cc1cc(CC(=O)N2CCN(CC3CC3)[C@@H]3CS(=O)(=O)C[C@@H]32)ccc1F,4.69
22,COCCN1C(=O)C[C@H]2[C@H]1CCN2Cc1ccccc1,-4.06
23,CS(=O)(=O)NCCC1CCCCN1C(=O)NCCc1ccccc1 (stereo not given),17.9

row,Structure (SMILES),cytotoxicity at 70.5 h [%]
1,Cc1nn(C)c(C)c1OCC(=O)NCC(O)c1ccsc1 (stereo not given),0.375
2,COCCNc1cc(C)nn2cnnc12,11.1
3,CCN(C(=O)CSc1ccc(C(F)(F)F)cn1)C1CC1,7.64
4,COCCN1CCc2cc(C(=O)NCC3CC3)c(NC(C)C)nc2CC1,24.8
5,Cc1ccc(C(=O)NCCCNS(C)(=O)=O)c(=O)[nH]1,-3.31
6,CCCS(=O)(=O)N1CCC2(CC1)CC(Nc1ncccn1)CO2 (stereo not given),-99.6
7,CCN(CC)C(=O)CN1CCC(c2nc(C)c3c(n2)N(C)CCC3)CC1,17.6
8,O=C1CCC[C@]2(CN(S(=O)(=O)N3CCCCC3)C[C@H]2c2cccnc2)N1,-6.21
9,Cc1ccnc(NC(=O)c2cc(C)oc2C)c1,4.63
10,CC[C@H]1CN(S(C)(=O)=O)CC[C@H]1CC(=O)NCCSC,-2.51
11,CCC(CC)N(Cc1cc(=O)n(C)c(=O)n1C)C1CC1,5.26
12,CNC(=O)c1sc2ccccc2c1C1CCN(c2nc(C)cc(C)n2)C1 (stereo not given),-6.07
13,CC(=O)N(Cc1ncc(C(C)C)o1)C1CCN(CC2CCC2)C1 (stereo not given),-3.28
14,O=C(CS(=O)(=O)Cc1cc(Cl)c2c(c1)OCO2)N1CCCC1,-0.922
15,O=C(O)Cn1ccc(=O)c2ccc(Cl)cc21,-7.34
16,Cc1nn(C)c(C)c1OCC(=O)N1CCCc2c(F)ccc(F)c21,18.1
17,COCCCNC(=O)C1CN(C(=O)c2cnccn2)C1,-15.7
18,CC(C)C1CN(c2ncc(F)cn2)CCC(=O)N1Cc1ccc(F)cc1 (stereo not given),-6.84
19,Cc1nc(-c2ccco2)ccc1C(=O)N1CCn2c(C)nnc2C1,-17.1
20,COCCN1CCC(CN(Cc2ccncc2)C2CCCCC2)CC1,-6.59
21,N#Cc1ccc(NCCc2n[nH]c(=O)[nH]2)cc1Cl,-10.2
22,COCC1CCCN(c2cncc(OCc3ccccc3)n2)C1 (stereo not given),6.39
23,COc1ccc(C(=O)N2CCCC(C)C2)cc1F (stereo not given),-2.9

row,Structure (SMILES),cytotoxicity at 70.5 h [%]
1,CCN1CC(C(=O)N2CCc3cc(C(N)=O)n(C)c3C2)CCC1=O (stereo not given),-6.08
2,CCCNCc1ccc(OCc2ccc3c(c2)OCCO3)cc1,33.3
3,COCCN1C2(CCN(Cc3nccs3)C2)c2ccccc2S1(=O)=O (stereo not given),-12.7
4,Cn1cc(CN2CCC3(CC(=O)N(c4ccc5c(c4)OCO5)C3)C2)cn1 (stereo not given),-9.01
5,CSc1ccc2cc(CN(C)CCCN(C)C)c(=O)[nH]c2c1,-11.2
6,CCCc1n[nH]c(C2CN(C(=O)c3cc(F)ccc3OC)CCO2)n1 (stereo not given),-23.2
7,COc1ccc(C2CN(c3nc(C)cc(C)n3)CCN2C(C)=O)cc1 (stereo not given),-4.4
8,O=C(C1CCCC1)N1CCCC([C@@H]2C[C@H](C(F)F)n3ncnc3N2)C1 (stereo not given in full),-6.92
9,CCc1nc(C)ncc1C(=O)N1CCN(CC)c2ccccc21,8.71
10,O=C(O)c1ccc2c(CN3CCOCC3)c[nH]c2c1,32.5
11,Cc1cc(C)n(C2CN(CCC(N)=O)C2)n1,0.833
12,Cc1cccc(CN2CC[C@@H]3[C@@H]2CCN3Cc2cccs2)n1,-5.52
13,CCn1c(N)nc2cc(C(=O)NCCc3ccccc3F)cnc21,-28.6
14,O=C(c1cscn1)N1CCCCC1c1nc2cc(F)ccc2[nH]1 (stereo not given),-1.08
15,CC(Oc1ccccc1C#N)C(=O)NC1CC1 (stereo not given),-8.65
16,CN1C[C@H](O)C[C@H]1c1nc(-c2ccc3c(c2)OCO3)no1,-0.612
17,CC(NC(=O)Cc1cccs1)c1nnc2n1CCC2 (stereo not given),-7.18
18,CCC1CCCCN1C(=O)c1ccnc(N(C)C)c1 (stereo not given),-0.362
19,CC(C)Nc1ncnc2c1CCN(C(=O)c1ccccc1F)CC2,-3.35
20,Cc1ccc(CNC2CCCc3c2cnn3C)s1 (stereo not given),-4.42
21,COCCN(c1ccncc1)S(=O)(=O)c1cc(C)c(F)cc1F,15.9
22,CC(C)c1cc(NCc2csc(N(C)C)n2)nc(N)n1,17.1
23,CSc1ccc(C(O)CNS(=O)(=O)C2CC2)cc1 (stereo not given),2.97

row,Structure (SMILES),cytotoxicity at 70.5 h [%]
1,OCCN1CCCCC1C1OCCO1 (stereo not given),0.562
2,CCN1CCCC(O)(c2nc(C)c(CCOc3ccccc3F)s2)CC1 (stereo not given),-8.35
3,O=C1[C@H]2CC[C@H](CN(Cc3ccccc3OC(F)F)C2)N1CC1CC1,-7.82
4,Cc1[nH]ncc1CCCNC(=O)N1CCC(CC(N)=O)CC1,-0.905
5,c1ccc(CN2CCOC3(CCCN(c4nccs4)C3)C2)cc1 (stereo not given),-7.62
6,CN1CCn2c(-c3cccc(F)c3)cnc2C12CCN(CC1CC1)CC2,4.4
7,O=S(=O)(NC1CCOC1)c1ccc(C(F)(F)F)nc1 (stereo not given),-2.28
8,Cc1ccc(C)c(S(=O)(=O)CCN2CCCC2Cn2cncn2)c1 (stereo not given),-14.3
9,CN(C)Cc1nn(C)c2c1CN(S(=O)(=O)c1ccccc1F)C2,-0.163
10,Cc1cccc(C(=O)NC2CCN(c3cnn(C)c3)C2=O)c1C (stereo not given),-2.07
11,CC(CO)NC(=O)Nc1ccc(CC#N)cc1 (stereo not given),-4.42
12,CC(C)c1noc(C(C)N2CCN(Cc3noc(C4CC4)n3)CC2)n1 (stereo not given),-10.9
13,c1cnnc(NCC2CN(Cc3ccon3)CCO2)c1 (stereo not given),26.6
14,COCCN1CCCC12CCN(C(=O)CC1CCCC1)CC2,3.49
15,Cc1cc(C(=O)NCC2SCCc3ccccc32)no1 (stereo not given),-14.4
16,Cc1c(COC(C)C)cccc1NC(=O)N1CCCC(CO)C1 (stereo not given),-3.17
17,CC(C)C1CN(S(C)(=O)=O)CCCN1Cc1ccc(F)cc1 (stereo not given),-3.17
18,Cn1cc(C2CCCN2c2ncnc3[nH]ccc23)cn1 (stereo not given),5.41
19,CC(C(=O)N(C)C)N1CCc2onc(-c3cccc(F)c3)c2C1 (stereo not given),-5.12
20,CN(C)Cc1cnc2n1CCN(Cc1ccsc1)CC2,-2.43
21,CN1CCN(Cc2c(Cl)ccc(O)c2Cl)CC1C(=O)O (stereo not given),-16.7
22,O=C(CNC(=O)Nc1c(F)cccc1Oc1ccccc1)NC1CC1,-9.17
23,Cc1cnccc1-n1nc(C(C)C)nc1CCN(C)S(C)(=O)=O,-1.14
